Measured values published in patent publication US9266924B2, “Cyclopentapeptide derivatives and uses thereof” (TECHNISCHE UNIVERSITÄT MÜNCHEN, priority 2010, dated 2016).
Read-outs that look alike come from different tables or passages of the source. Where a SMILES comes first, the peptide text is derived from it. Side-chain parts run from the residue outwards. [ ]: non-standard residue; d: D form. The star is where a group is joined. DOTA(Ga) = O=C1CN2CCN3CCN(CC(=O)*)CCN(CC2)CC(=O)[O][Ga]([O]1)[O]C(=O)C3; DOTA(In) = O=C1CN2CCN3CCN(CC(=O)*)CCN(CC2)CC(=O)[O][In]([O]1)[O]C(=O)C3; DOTA = O=C(O)CN1CCN(CC(=O)O)CCN(CC(=O)*)CCN(CC(=O)O)CC1; 2Nal = N[C@@H](Cc1ccc2ccccc2c1)C(=O)O; dNMeOrn = CN[C@H](CCCN)C(=O)O; 4Abz = Nc1ccc(C(=O)O)cc1; AEEA = NCCOCCOCC(=O)O; Ava = NCCCCC(=O)O; βAla = NCCC(=O)O

Biological target: T1, human-CXCR4 (Homo sapiens, UniProt P61073)
T1 construct: tested first at Jurkat cells that endogenously express the CXCR4 receptor; endogenous in cells; host or cells: Jurkat cells (whole cells in suspension)
T1 sequence (P61073 whole entry): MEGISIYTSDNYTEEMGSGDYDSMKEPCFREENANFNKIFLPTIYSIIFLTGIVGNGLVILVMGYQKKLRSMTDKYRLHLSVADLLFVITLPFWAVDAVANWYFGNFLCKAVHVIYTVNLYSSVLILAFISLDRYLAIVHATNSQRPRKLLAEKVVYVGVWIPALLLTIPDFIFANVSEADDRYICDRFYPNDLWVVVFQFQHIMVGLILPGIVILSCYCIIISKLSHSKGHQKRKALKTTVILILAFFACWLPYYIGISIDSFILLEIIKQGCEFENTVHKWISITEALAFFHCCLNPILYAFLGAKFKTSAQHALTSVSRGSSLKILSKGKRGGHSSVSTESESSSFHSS
Test: Competition binding assay on Jurkat cells with 125I-CPCR4 as radiotracer
Description: For receptor binding assays cells may be resuspended in PBS/0.2% BSA. A total of 200 μl of the suspension containing 400,000 Jurkat cells may be incubated with 25 μl of the tracer solution (containing 3.1 kBq, approx. 0.1 nM) and 25 μl of the diluent or the competitor at different concentrations. […] After shaking for 2 h at room temperature, the incubation may be terminated by centrifugation at 1300 rpm for 5 min, Cell pellets may be washed once with cold PBS followed by a second centrifugation step. Cell bound radioactivity may be determined by using a gamma counter. Experiments may be repeated 2-3 times in triplicates. IC50 values of the compounds may be calculated by nonlinear regression using GraphPad Prism (GraphPad Prism 4.0 Software, Inc., San Diego, Calif., USA). Each data point may be the average of three determinations.
Cells were resuspended in 0.2% PBS/0.2% BSA. A total of 200 μL of the suspension containing 2×10^6 Jurkat cells/ml or 400000 cell/200 μl were incubated with 25 μL of the tracer solution (containing 100,000 cpm, approx. 0.1 nM) and 25 μL of competitor dissolved in ultra pure H2O or, if necessary, up to 20% DMSO at different concentrations. The tracer concentration was varied from 5 to 500 pM.
After 2 h at room temperature, the incubation was terminated by centrifugation at 2000 rpm for 5 min. Cell pellets were washed once with 400 μL cold PBS. Cell bound radioactivity was determined by using a gamma counter. Experiments were repeated three times in triplicates. IC50 values of the peptides were calculated by nonlinear regression using GraphPad Prism (GraphPad Prism 4.0 Software, San Diego, Calif., USA).
The cell concentration was determined with a Casy cell counter (500 cell suspension in 10 ml Casy solution (Innovartis AG, Casy technology). The desired cell suspension volume was transferred into an Eppendorf tube, centrifuged, the supernatant was discarded and the pellet was resuspended in 20 ml 0.2% PBS-BSA-buffer.
Subsequently, the tubes were placed on a shaker for 2 h (200 mot/min). Thereafter, the tubes were centrifuged for 5 min at 2000 rpm and the supernatant carefully removed. The pellets were washed with 400 μl PBS and the tubes were again centrifuged for 5 min at 2000 rpm. After the supernatant was carefully removed, the tubes were measured in a gamma counter. All data were analyzed with a suitable software package, i.e. GraphPad Prism 4 with the following parameters: Equation: Sigmoidal dose-response, Y=Bottom+(Top−Bottom)/(1+10^((Log EC50−X))); X is the logarithm of concentration; Y is the response; Y starts at bottom and goes to top with a sigmoid shape.

[1] = Jurkat cells, 125I-CPCR4 tracer, 2 h at room temperature, read-out: IC50 [nM] (Binding Data)
[2] = read-out: IC50 [nM] (Binding Data)

Compound	IC50 [1]	further results
CN1C(=O)[C@@H](Cc2ccc(O)cc2)NC(=O)CNC(=O)[C@H](Cc2ccc3ccccc3c2)NC(=O)[C@H](CCCNC(=N)N)NC(=O)[C@H]1CCCNC(=O)CCCCNC(=O)CCCCNC(=O)CN1CCN2CCN3CCN(CC1)CC(=O)[O][In]([O]C(=O)C2)[O]C(=O)C3 [Compound 23, yorn′(AVS, AVS, DOTA, In)RNalG] (cyclo([2Nal]G[dY][dNMeOrn]([Ava-Ava-DOTA(In)])R))	123 ± 25 nM	
CN1C(=O)[C@@H](Cc2ccc(O)cc2)NC(=O)CNC(=O)[C@H](Cc2ccc3ccccc3c2)NC(=O)[C@H](CCCNC(=N)N)NC(=O)[C@H]1CCCNC(=O)c1ccc(CNC(=O)CN2CCN(CC(=O)O)CCN(CC(=O)O)CCN(CC(=O)O)CC2)cc1 (single isomer, unassigned) [Compound 9, yorn′(AMBS, DOTA, Ga)RNalG]		IC50 (IC50 (Exemplary Binding Study A), Jurkat cells, 125I-CPCR4 tracer, n=4): 4.78 ± 0.73 nM; IC50 (IC50 [nM] (Binding Data), Jurkat cells, 125I-CPCR4 tracer, 2 h at room temperature): 7 ± 4.25 nM
CN1C(=O)[C@@H](Cc2ccc(O)cc2)NC(=O)CNC(=O)[C@H](Cc2ccc3ccccc3c2)NC(=O)[C@H](CCCNC(=N)N)NC(=O)[C@H]1CCCNC(=O)c1ccc(NC(=O)CN2CCN(CC(=O)O)CCN(CC(=O)O)CCN(CC(=O)O)CC2)cc1 [Compound 15, yorn′(ABS, DOTA)RNalG]	335 nM	
CN1C(=O)[C@@H](Cc2ccc(O)cc2)NC(=O)CNC(=O)[C@H](Cc2ccc3ccccc3c2)NC(=O)[C@H](CCCNC(=N)N)NC(=O)[C@H]1CCCNC(=O)CN1CCN2CCN3CCN(CC1)CC(=O)[O][In]([O]C(=O)C2)[O]C(=O)C3 [Compound 20, yorn′(DOTA, In)RNalG] (cyclo([2Nal]G[dY][dNMeOrn](DOTA(In))R))	> 1000 nM	
CN1C(=O)[C@@H](Cc2ccc(O)cc2)NC(=O)CNC(=O)[C@H](Cc2ccc3ccccc3c2)NC(=O)[C@H](CCCNC(=N)N)NC(=O)[C@H]1CCCNC(=O)c1ccc(NC(=O)CN2CCN(CC(=O)O)CCN(CC(=O)O)CCN(CC(=O)O)CC2)cc1 (single isomer, unassigned) [Compound 13, yorn′(ABS, DOTA, Ga)RNalG]	11.5 ± 4.4 nM	
CN1C(=O)[C@@H](Cc2ccc(O)cc2)NC(=O)CNC(=O)[C@H](Cc2ccc3ccccc3c2)NC(=O)[C@H](CCCNC(=N)N)NC(=O)[C@H]1CCCNC(=O)c1ccc(NC(=O)CCCCNC(=O)CN2CCN(CC(=O)O)CCN(CC(=O)O)CCN(CC(=O)O)CC2)cc1 [Compound 18, yorn′(ABS, AVS, DOTA)RNalG]	121 ± 17 nM	
CN1C(=O)[C@@H](Cc2ccc(O)cc2)NC(=O)CNC(=O)[C@H](Cc2ccc3ccccc3c2)NC(=O)[C@H](CCCNC(=N)N)NC(=O)[C@H]1CCCNC(=O)c1ccc(NC(=O)CCNC(=O)CN2CCN(CC(=O)O)CCN(CC(=O)O)CCN(CC(=O)O)CC2)cc1 [Compound 1, yorn′(ABS, betaAla, DOTA)RNalG] (cyclo([dY][dNMeOrn]([4Abz-βAla-DOTA])R[2Nal]G))	37.6 ± 14.7 nM	
CN1C(=O)[C@@H](Cc2ccc(O)cc2)NC(=O)CNC(=O)[C@H](Cc2ccc3ccccc3c2)NC(=O)[C@H](CCCNC(=N)N)NC(=O)[C@H]1CCCNC(=O)CNC(=O)COCCOCCNC(=O)CN1CCN2CCN3CCN(CC1)CC(=O)[O][In]([O]C(=O)C2)[O]C(=O)C3 [Compound 26, yorn′(G, Trigas, DOTA, In)RNalG] (cyclo([2Nal]G[dY][dNMeOrn]([Gly-AEEA-DOTA(In)])R))	457 nM	
CN1C(=O)[C@@H](Cc2ccc(O)cc2)NC(=O)CNC(=O)[C@H](Cc2ccc3ccccc3c2)NC(=O)[C@H](CCCNC(=N)N)NC(=O)[C@H]1CCCNC(=O)c1ccc(NC(=O)CN2CCN3CCN4CCN(CC2)CC(=O)[O][Ga]([O]C(=O)C3)[O]C(=O)C4)cc1 [Compound 17, yorn′(ABS, DOTA, Ga)RNalG] (cyclo([2Nal]G[dY][dNMeOrn]([4Abz-DOTA(Ga)])R))	11.5 ± 4.4 nM	
CN1C(=O)[C@@H](Cc2ccc(O)cc2)NC(=O)CNC(=O)[C@H](Cc2ccc3ccccc3c2)NC(=O)[C@H](CCCNC(=N)N)NC(=O)[C@H]1CCCNC(=O)c1ccc(NC(=O)CCCCCNC(=O)CN2CCN(CC(=O)O)CCN(CC(=O)O)CCN(CC(=O)O)CC2)cc1 [Compound 14, yorn′(ABS, Ahx, DOTA)RNalG]		IC50 [2]: > 1000 nM
CN1C(=O)[C@@H](Cc2ccc(O)cc2)NC(=O)CNC(=O)[C@H](Cc2ccc3ccccc3c2)NC(=O)[C@H](CCCNC(=N)N)NC(=O)[C@H]1CCCNC(=O)CN1CCN2CCN3CCN(CC1)CC(=O)[O][Ga]([O]C(=O)C2)[O]C(=O)C3 [Compound 21, yorn′(DOTA, Ga)RNalG] (cyclo([2Nal]G[dY][dNMeOrn](DOTA(Ga))R))	289 nM	
yorn′(ABS, betaAla, DOTA, In)RNalG [Compound 4]	30.4 ± 3.68 nM	
CN1C(=O)[C@@H](Cc2ccc(O)cc2)NC(=O)CNC(=O)[C@H](Cc2ccc3ccccc3c2)NC(=O)[C@H](CCCNC(=N)N)NC(=O)[C@H]1CCCNC(=O)CCCCNC(=O)CCCCNC(=O)CN1CCN2CCN3CCN(CC1)CC(=O)[O][Ga]([O]C(=O)C2)[O]C(=O)C3 [Compound 24, yorn′(AVS, AVS, DOTA, Ga)RNalG] (cyclo([2Nal]G[dY][dNMeOrn]([Ava-Ava-DOTA(Ga)])R))	89.7 ± 18.3 nM	
CN1C(=O)[C@@H](Cc2ccc(O)cc2)NC(=O)CNC(=O)[C@H](Cc2ccc3ccccc3c2)NC(=O)[C@H](CCCNC(=N)N)NC(=O)[C@H]1CCCNC(=O)c1ccc(NC(=O)CN2CCN3CCN4CCN(CC2)CC(=O)[O][In]([O]C(=O)C3)[O]C(=O)C4)cc1 [Compound 16, yorn′(ABS, DOTA, In)RNalG] (cyclo([2Nal]G[dY][dNMeOrn]([4Abz-DOTA(In)])R))	105 nM	
CN1C(=O)[C@@H](Cc2ccc(O)cc2)NC(=O)CNC(=O)[C@H](Cc2ccc3ccccc3c2)NC(=O)[C@H](CCCNC(=N)N)NC(=O)[C@H]1CCCNC(=O)c1ccc(CNC(=O)CN2CCN(CC(=O)O)CCN(CC(=O)O)CCN(CC(=O)O)CC2)cc1 (single isomer, unassigned) [Compound 8, yorn′(AMBS, DOTA, In)RNalG]		IC50 [2]: 44.9 ± 10.4 nM
CN1C(=O)[C@@H](Cc2ccc(O)cc2)NC(=O)CNC(=O)[C@H](Cc2ccc3ccccc3c2)NC(=O)[C@H](CCCNC(=N)N)NC(=O)[C@H]1CCCNC(=O)c1ccc(NC(=O)CNC(=O)CN2CCN(CC(=O)O)CCN(CC(=O)O)CCN(CC(=O)O)CC2)cc1 [Compound 10, yorn′(ABS, G, DOTA)RNalG]	88.8 ± 18.4 nM	
